Reference: PubChem BioAssay (NCI)
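Cultured in 96-well plates, cells were exposed to test compound for 48 hours across five concentrations. TGI: total growth inhibition.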

Key:
Assay in all cases: NCI anticancer screen, dose series, 48 h
NCI-H23 lung = tested on: NCI-H23 lung
CCRF-CEM leukemia = tested on: CCRF-CEM leukemia
A549 NSCLC = tested on: A549 NSCLC
OVCAR-4 ovarian = tested on: OVCAR-4 ovarian
UACC-62 melanoma = tested on: UACC-62 melanoma
UACC-257 melanoma = tested on: UACC-257 melanoma
SW-620 colon = tested on: SW-620 colon
NCI-H460 lung = tested on: NCI-H460 lung
MALME-3M melanoma = tested on: MALME-3M melanoma
HOP-62 NSCLC = tested on: HOP-62 NSCLC
U251 CNS = tested on: U251 CNS
LOX IMVI melanoma = tested on: LOX IMVI melanoma
MOLT-4 leukemia = tested on: MOLT-4 leukemia
CAKI-1 renal = tested on: CAKI-1 renal
RPMI-8226 leukemia = tested on: RPMI-8226 leukemia
SF-539 CNS = tested on: SF-539 CNS
SK-MEL-28 melanoma = tested on: SK-MEL-28 melanoma
KM12 colon = tested on: KM12 colon
786-0 renal = tested on: 786-0 renal
PC-3 prostate = tested on: PC-3 prostate
BT-549 breast = tested on: BT-549 breast
EKVX NSCLC = tested on: EKVX NSCLC
MCF7 breast = tested on: MCF7 breast
IGROV1 ovarian = tested on: IGROV1 ovarian
A498 renal = tested on: A498 renal
SK-OV-3 ovarian = tested on: SK-OV-3 ovarian
RXF 393 renal = tested on: RXF 393 renal
ACHN renal = tested on: ACHN renal
MDA-MB-435 = tested on: MDA-MB-435
SK-MEL-2 melanoma = tested on: SK-MEL-2 melanoma
SF-268 CNS = tested on: SF-268 CNS
OVCAR-3 ovarian = tested on: OVCAR-3 ovarian
DU-145 prostate = tested on: DU-145 prostate
MDA-N = tested on: MDA-N
HCT-116 colon = tested on: HCT-116 colon
TK-10 renal = tested on: TK-10 renal
OVCAR-8 ovarian = tested on: OVCAR-8 ovarian
SK-MEL-5 melanoma = tested on: SK-MEL-5 melanoma
NCI-H226 lung = tested on: NCI-H226 lung
COLO 205 colon = tested on: COLO 205 colon
NCI-H522 lung = tested on: NCI-H522 lung
SN12C renal = tested on: SN12C renal
T-47D breast = tested on: T-47D breast
HCT-15 colon = tested on: HCT-15 colon
HCC-2998 colon = tested on: HCC-2998 colon
K-562 leukemia = tested on: K-562 leukemia
SNB-75 CNS = tested on: SNB-75 CNS
HOP-92 NSCLC = tested on: HOP-92 NSCLC
SNB-19 CNS = tested on: SNB-19 CNS
SR leukemia = tested on: SR leukemia
SF-295 CNS = tested on: SF-295 CNS
M14 melanoma = tested on: M14 melanoma
MDA-MB-231 breast = tested on: MDA-MB-231 breast
NCI/ADR-RES ovarian = tested on: NCI/ADR-RES ovarian
OVCAR-5 ovarian = tested on: OVCAR-5 ovarian
HL-60(TB) leukemia = tested on: HL-60(TB) leukemia
HT29 colon = tested on: HT29 colon
UO-31 renal = tested on: UO-31 renal
HS 578T breast = tested on: HS 578T breast

OCCOCCO/N=C1\C(c2c(O)[nH]c3ccccc23)=Nc2ccccc21
TGI (NCI-H23 lung): 29.3 µM | TGI (CCRF-CEM leukemia): > 100 µM | TGI (A549 NSCLC): 17.1 µM | TGI (OVCAR-4 ovarian): 43.1 µM | TGI (UACC-62 melanoma): 6.99 µM | TGI (UACC-257 melanoma): > 73.1 µM | TGI (SW-620 colon): > 100 µM | TGI (NCI-H460 lung): 15.3 µM | TGI (MALME-3M melanoma): 17.5 µM | TGI (HOP-62 NSCLC): 27.6 µM | TGI (U251 CNS): 16.8 µM | TGI (LOX IMVI melanoma): 11.6 µM | TGI (MOLT-4 leukemia): > 100 µM | TGI (CAKI-1 renal): 10.8 µM | TGI (RPMI-8226 leukemia): > 33.2 µM | TGI (SF-539 CNS): 11.5 µM | TGI (SK-MEL-28 melanoma): > 85.2 µM | TGI (KM12 colon): 14.1 µM | TGI (786-0 renal): 12.1 µM | TGI (PC-3 prostate): 18.1 µM | TGI (BT-549 breast): 18.3 µM | TGI (EKVX NSCLC): 18.2 µM | TGI (MCF7 breast): 9.73 µM | TGI (IGROV1 ovarian): 5.35 µM | TGI (A498 renal): 839 nM | TGI (SK-OV-3 ovarian): 3.27 µM | TGI (RXF 393 renal): 6.42 µM | TGI (ACHN renal): 10.3 µM | TGI (MDA-MB-435): 27.8 µM | TGI (SK-MEL-2 melanoma): 13.7 µM | TGI (SF-268 CNS): 17.8 µM | TGI (OVCAR-3 ovarian): 10.2 µM | TGI (DU-145 prostate): 22.8 µM | TGI (MDA-N): 26.7 µM | TGI (HCT-116 colon): 3.95 µM | TGI (TK-10 renal): 20.9 µM | TGI (OVCAR-8 ovarian): 27.9 µM | TGI (SK-MEL-5 melanoma): 6 µM | TGI (NCI-H226 lung): 10.3 µM | TGI (COLO 205 colon): 3.38 µM | TGI (NCI-H522 lung): 17 µM | TGI (SN12C renal): 17.9 µM | TGI (T-47D breast): > 44.6 µM | TGI (HCT-15 colon): > 52.4 µM | TGI (HCC-2998 colon): 11.6 µM | TGI (K-562 leukemia): > 100 µM | TGI (SNB-75 CNS): 13.8 µM | TGI (HOP-92 NSCLC): 69.6 µM | TGI (SNB-19 CNS): 33.7 µM | TGI (SR leukemia): > 100 µM | TGI (SF-295 CNS): 10.2 µM | TGI (M14 melanoma): > 100 µM | TGI (MDA-MB-231 breast): 29.9 µM | TGI (NCI/ADR-RES ovarian): > 49.2 µM | TGI (OVCAR-5 ovarian): 20.5 µM | TGI (HL-60(TB) leukemia): 39.3 µM | TGI (HT29 colon): 7.11 µM | TGI (UO-31 renal): 6.48 µM

NC12CC3C4CC5(N)CC3C(C1)C(C5)C4C2
TGI (NCI-H23 lung): > 100 µM | TGI (CCRF-CEM leukemia): > 100 µM | TGI (A549 NSCLC): > 100 µM | TGI (OVCAR-4 ovarian): > 100 µM | TGI (UACC-62 melanoma): > 100 µM | TGI (UACC-257 melanoma): > 100 µM | TGI (SW-620 colon): > 100 µM | TGI (NCI-H460 lung): > 100 µM | TGI (MALME-3M melanoma): > 100 µM | TGI (HOP-62 NSCLC): > 100 µM | TGI (U251 CNS): > 100 µM | TGI (LOX IMVI melanoma): > 100 µM | TGI (MOLT-4 leukemia): > 100 µM | TGI (CAKI-1 renal): > 100 µM | TGI (SK-MEL-28 melanoma): > 100 µM | TGI (KM12 colon): > 100 µM | TGI (786-0 renal): > 100 µM | TGI (PC-3 prostate): > 100 µM | TGI (BT-549 breast): > 100 µM | TGI (EKVX NSCLC): > 100 µM | TGI (MCF7 breast): > 100 µM | TGI (IGROV1 ovarian): > 100 µM | TGI (A498 renal): > 100000 nM | TGI (SK-OV-3 ovarian): > 100 µM | TGI (RXF 393 renal): > 100 µM | TGI (ACHN renal): > 100 µM | TGI (MDA-MB-435): > 100 µM | TGI (SK-MEL-2 melanoma): > 100 µM | TGI (SF-268 CNS): > 100 µM | TGI (OVCAR-3 ovarian): > 100 µM | TGI (MDA-N): > 100 µM | TGI (HCT-116 colon): > 100 µM | TGI (TK-10 renal): > 100 µM | TGI (OVCAR-8 ovarian): > 100 µM | TGI (SK-MEL-5 melanoma): > 100 µM | TGI (NCI-H226 lung): > 100 µM | TGI (COLO 205 colon): > 100 µM | TGI (NCI-H522 lung): > 100 µM | TGI (SN12C renal): > 100 µM | TGI (T-47D breast): > 100 µM | TGI (HCT-15 colon): > 100 µM | TGI (K-562 leukemia): > 100 µM | TGI (HOP-92 NSCLC): > 100 µM | TGI (SNB-19 CNS): > 100 µM | TGI (SF-295 CNS): > 100 µM | TGI (M14 melanoma): > 100 µM | TGI (MDA-MB-231 breast): > 100 µM | TGI (NCI/ADR-RES ovarian): > 100 µM | TGI (OVCAR-5 ovarian): > 100 µM | TGI (HS 578T breast): > 100 µM | TGI (HL-60(TB) leukemia): > 100 µM | TGI (HT29 colon): > 100 µM | TGI (UO-31 renal): > 100 µM
